This is an account of results in US20210070747A1, “2(1H)-QUINOLINONE DERIVATIVE” (priority 2017, published 2021).

The target of one test is T1, E. coli DNA gyrase (Escherichia coli, UniProt P0AES6).
T1 construct: made in house; host or cells: E. coli BL21 (DE3)
The test is described as follows: Test for evaluating the activity of inhibiting E. coli DNA gyrase enzyme (Method 2, supercoiling, recombinant gyrA/gyrB complex). In kind it is biochemical. As for the experimental part: The enzymatic activity of E. coli DNA gyrase was measured by a method comprising reacting DNA gyrase and its substrate, relaxed pBR322 (Inspiralis), in the presence of ATP and detecting the post-reaction supercoiled pBR322/relaxed pBR322 ratio with H19.
Specifically, to 1 ng/μL of relaxed pBR322, E. coli DNA gyrase enzyme (the gyrA or gyrB gene was incorporated into the pET15b plasmid and after expressing them in E. coli BL21 (DE3), purification was performed using a Ni-NTA column to form a complex at room temperature) was added at a final concentration of 0.135 nmol/mL and the mixture was incubated for 60 minutes at room temperature. This reaction was carried out in 20 mmol/L tris-HCl buffered solution (pH 8.0) comprising 0.5 mmol/L ATP, 0.005% bridge 35, 35 mmol/L ammonium acetate, 8 mmol/L magnesium chloride, 4.6% glycerol, and 1 mmol/L dithiothreitol. To the reaction mixture, H19 was added to bring the reaction to an end; thereafter, the supercoiled pBR322/relaxed pBR322 ratio was detected at excitation wavelength/emission wavelength=485 nm/535 nm. An inhibition curve was obtained by allowing the analyte compound to be present at varying concentrations during the reaction described above.

A further test relates to E. Coli ATCC 25922. The test is described as follows: Test for evaluating antibacterial activity (E. coli), broth microdilution MIC. The note with it: Escherichia coli, ATCC25922; 35° C., 18 hours, cation-adjusted Mueller-Hinton medium. In kind it is cell-based. As for the experimental part:
Minimum inhibitory concentration (MIC) was measured using the broth microdilution method described below in accordance with a modification of the standard method specified by CLSI (Clinical & Laboratory Standards Institute).
Bacterial cells under test were cultured overnight on a heart infusion agar medium, scraped off and suspended at a concentration equivalent to McFarland 0.5 turbidity; the suspension thus obtained was diluted 10 folds to give a liquid inoculum. The inoculum (0.005 mL) was inoculated on a cation-adjusted Mueller-Hinton medium containing the analyte compound and cultured at 35° C. for 18 hours. A minimum drug concentration at which no bacterial growth was macroscopically visible was designated MIC.
Background: Broth dilution looks for growth in wells or tubes with falling amounts of substance.

Where [1] appears, read: Method 2, read-out: E. Coli Gyrase supercoiling IC50.

As a reminder, the IC50 is the concentration needed to halve the response being measured. By MIC is commonly meant the lowest concentration found to suppress growth. Low values mean greater potency, high ones weaker potency. One may read the inhibition as the percentage by which the read-out fell short of the control.

Converted amounts (≈) assume the structure as drawn. Read-outs that look alike come from different tables or passages of the source.

For `CCc1cc(C(=O)NCCN2CCOCC2)ccc1NC(=O)c1cc2cc(F)cc(NC)c2[nH]c1=O` [Example 94, N-(2-ethyl-4-{[2-(morpholine-4-yl)ethyl]carbamoyl}phenyl)-6-fluoro-8-(methylamino)-2-oxo-1,2-dihydroquinoline-3-carboxamide], the IC50 at E. coli DNA gyrase (setting [1]) was 131 nM. This compound also displayed an MIC against E. Coli ATCC 25922 above 2 µg/mL. For `CNc1cccc2cc(C(=O)Nc3cnc(NCCN4CCN(C)CC4)nc3)c(=O)[nH]c12` [Example 34, 8-(methylamino)-N-(2-{[2-(4-methylpiperazine-1-yl)ethyl]amino}pyrimidine-5-yl)-2-oxo-1,2-dihydroquinoline-3-carboxamide], in that order: 23.2 nM and above 64 µg/mL.

For the compound `CNc1cc(F)cc2cc(C(=O)Nc3ccc(C(=O)O)cc3/C=C/CCN(C)C)c(=O)[nH]c12.Cl` [Example 125, 3-[(1E)-4-(dimethylamino)but-1-en-1-yl]-4-{[6-fluoro-8-(methylamino)-2-oxo-1,2-dihydroquinoline-3-carbonyl]amino}benzoic acid-hydrochloride], on E. coli DNA gyrase, the IC50 was 24.6 nM. In addition, the minimum inhibitory concentration (MIC) in the test on E. Coli ATCC 25922 was above 32 µg/mL.

For `CNc1cc(F)cc2c(NCCN3CCOCC3)c(C(=O)Nc3ccc(C(=O)O)cc3)c(=O)[nH]c12.O=CO` [Example 143, 4-{[6-fluoro-8-(methylamino)-4-{[2-(morpholine-4-yl)ethyl]amino}-2-oxo-1,2-dihydroquinoline-3-carbonyl]amino}benzoic acid-formate], the IC50 on E. coli DNA gyrase came to 14.6 nM. In the test on E. Coli ATCC 25922, the MIC was above 64 µg/mL.

Regarding `CNc1cc(F)cc2cc(C(=O)Nc3ccc(C(=O)O)cc3CCN(C)C)c(=O)[nH]c12` [Example 115, 3-[2-(dimethylamino)ethyl]-4-{[6-fluoro-8-(methylamino)-2-oxo-1,2-dihydroquinoline-3-carbonyl]amino} benzoic acid], at E. coli DNA gyrase (setting [1]), the IC50 was determined as 4.57 nM. In addition, in the test on E. Coli ATCC 25922, the MIC was above 4 µg/mL. On to `CNCCCc1c(C(=O)Nc2ccc(C(=O)O)cc2)c(=O)[nH]c2c(NC)cc(F)cc12.O=C(O)C(F)(F)F` [Example 134, 4-([6-Fluoro-8-(methylamino)-4-[3-(methylamino)propyl]-2-oxo-1,2-dihydroquinoline-3-carbonyl]amino)benzoic Acid-Trifluoroacetate], for which the IC50 at E. coli DNA gyrase stood at 131 nM. Further, the MIC in the test with E. Coli ATCC 25922 was above 32 µg/mL. Take `CNCCNc1c(C(=O)Nc2ccc(C(=O)O)cc2)c(=O)[nH]c2c(NC)cc(F)cc12.O=CO` [Example 141, 4-{[6-fluoro-8-(methylamino)-4-{[2-(methylamino)ethyl]amino}-2-oxo-1,2-dihydroquinoline-3-carobnyl]amino}benzoic acid-formate]: the IC50 on E. coli DNA gyrase was determined as 2.09 nM. Moreover, the MIC against E. Coli ATCC 25922 is above 16 µg/mL. Regarding `CNc1cccc2cc(C(=O)NCCc3ccc(C(=O)O)cc3)c(=O)[nH]c12` [Example 167, 4-(2-{[8-(methylamino)-2-oxo-1,2-dihydroquinoline-3-carbonyl]amino}ethyl)benzoic acid], the IC50 at E. coli DNA gyrase (setting [1]) came to 134 nM. Also, the MIC with E. Coli ATCC 25922 was above 32 µg/mL. Turning to `CNc1cc(F)cc2cc(C(=O)Nc3ccc(C(=O)NO)cc3)c(=O)[nH]c12` [Example 92, 6-Fluoro-N-[4-(hydroxycarbamoyl)phenyl]-8-(methylamino)-2-oxo-1,2-dihydroquinoline-3-carboxamide], the IC50 at E. coli DNA gyrase (setting [1]) came to 2.56 nM. In the test on E. Coli ATCC 25922, this compound had an MIC above 4 µg/mL. Consider `CNc1cc(F)cc2c(NCC3CCNCC3)c(C(=O)Nc3ccc(C(=O)O)cc3)c(=O)[nH]c12.O=CO` [Example 137, 4-{[6-fluoro-8-(methylamino)-2-oxo-4-{[(piperidine-4-yl)methyl]amino}-1,2-dihydroquinoline-3-carbonyl]amino}benzoic acid-formate], for which the half-maximal inhibitory concentration (IC50) at E. coli DNA gyrase amounted to 1.31 nM. Besides, the MIC in the test with E. Coli ATCC 25922 is above 32 µg/mL. As to `CCOC(=O)c1ccc(NC(=O)c2c(O)c3cc(F)cc(NC)c3[nH]c2=O)cc1` [Example 127, Ethyl 4-[[6-fluoro-4-hydroxy-8-(methylamino)-2-oxo-1,2-dihydroquinoline-3-carbonyl]amino]benzoate], on E. coli DNA gyrase (setting [1]), the IC50 stood at 214 nM. The MIC in the test with E. Coli ATCC 25922 is above 16 µg/mL. For the compound `CNc1cc(F)cc2cc(C(=O)Nc3ccc(C(=O)O)cc3CNC3CCCCC3)c(=O)[nH]c12.O=C(O)C(F)(F)F` [Example 113, 3-[(cyclohexylamino)methyl]-4-{[6-fluoro-8-(methylamino)-2-oxo-1,2-dihydroquinoline-3-carbonyl]amino}benzoic acid-trifluoroacetate], on E. coli DNA gyrase, the 50% inhibitory concentration (IC50) stood at 0.26 nM. The minimum inhibitory concentration (MIC) against E. Coli ATCC 25922 was determined as 32 µg/mL. As to `CNc1cc(F)cc2cc(C(=O)Nc3cnc(C(=O)NCCCN4CCOCC4)nc3)c(=O)[nH]c12` [Example 82, 6-fluoro-8-(methylamino)-N-(2-{[3-(morpholine-4-yl)propyl]carbamoyl}pyrimidine-5-yl)-2-oxo-1,2-dihydroquinoline-3-carboxamide], the IC50 on E. coli DNA gyrase (setting [1]) was determined as 0.47 nM. The compound further had an MIC against E. Coli ATCC 25922 of 0.25 µg/mL (≈ 0.517 µM). Turning to `CNc1cc(F)cc2cc(C(=O)Nc3ccc(CO)cc3CN(CCO)C3CCCCC3)c(=O)[nH]c12` [Example 124, N-[2-{[cyclohexyl(2-hydroxyethyl)amino]methyl}-4-(hydroxymethyl)phenyl]-6-fluoro-8-(methylamino)-2-oxo-1,2-dihydroquinoline-3-carboxamide], the 50% inhibitory concentration (IC50) at E. coli DNA gyrase (setting [1]) is 1.6 nM. On to `CNc1cccc2cc(C(=O)NCc3cccc(C(=O)O)c3)c(=O)[nH]c12` [Example 168, 3-({[8-(methylamino)-2-oxo-1,2-dihydroquinoline-3-carbonyl]amino}methyl)benzoic acid], for which the IC50 on E. coli DNA gyrase (setting [1]) is 1670 nM. The compound also returned an MIC in the test with E. Coli ATCC 25922 above 32 µg/mL. In the case of `CNc1cccc2cc(C(=O)Nc3ccc(C(=O)NC(CO)CO)cc3)c(=O)[nH]c12` [Example 38, N-{4-[(1,3-dihydroxypropane-2-yl)carbamoyl]phenyl}-8-(methylamino)-2-oxo-1,2-dihydroquinoline-3-carboxamide], at E. coli DNA gyrase (setting [1]), the IC50 came to 4730 nM. Still for that read-out and setting: next, `CNc1cc(F)cc2cc(C(=O)Nc3nccn3C)c(=O)[nH]c12` [Example 87, 6-fluoro-8-(methylamino)-N-(1-methyl-1H-imidazole-2-yl)-2-oxo-1,2-dihydroquinoline-3-carboxamide]: 1040 nM. Turning to `CNc1cc(F)cc2cc(C(=O)Nc3ccn(C)n3)c(=O)[nH]c12` [Example 88, 6-fluoro-8-(methylamino)-N-(1-methyl-1H-pyrazole-3-yl)-2-oxo-1,2-dihydroquinoline-3-carboxamide], the inhibition at 10 µM on E. coli DNA gyrase (Method 2, at 10000 nM) stood at 41%. For `CNc1cc(F)cc2cc(C(=O)Nc3ccc(C(=O)O)cc3CCC3CCCCC3)c(=O)[nH]c12` [Example 102, 3-(2-cyclohexylethyl)-4-{[6-fluoro-8-(methylamino)-2-oxo-1,2-dihydroquinoline-3-carbonyl]amino} benzoic acid], the half-maximal inhibitory concentration (IC50) at E. coli DNA gyrase is 228 nM. For the compound `CNc1cc(F)cc2cc(C(=O)N(C)c3cncnc3)c(=O)[nH]c12` [Example 61, 6-fluoro-N-methyl-8-(methylamino)-2-oxo-N-(pyrimidine-5-yl)-1,2-dihydroquinoline-3-carboxamide], the IC50 at E. coli DNA gyrase (setting [1]) was 334 nM. On the same count and under the same terms, next, `CCCCCN(CCCCC)Cc1cc(C(=O)O)ccc1NC(=O)c1cc2cc(F)cc(NC)c2[nH]c1=O` [Example 101, 3-[(dipentylamino)methyl]-4-{[6-fluoro-8-(methylamino)-2-oxo-1,2-dihydroquinoline-3-carbonyl]amino} benzoic acid]: 0.8 nM.
